Entries after “also recorded” stand apart in the source; their conditions may differ. Where two headings read alike, the source gives them in different places. No end group written: not given here.
Experiments:
RAW264.7 macrophages = assay type: cell-based, murine; conditions: for IC50: 2 h; for LC50 (cytotoxicity): toxicity, XTT, 2 hours incubation (method: LC50), read-out: IC50 macrophages RAW264.7
Experimental: (§1) All in vitro assays were performed on RAW264.7 murine macrophages (ATCC-TIB71). Cells were grown in DMEM supplemented with 10% FBS, L-glutamine, sodium pyruvate, non-essential amino acids and antibiotics (Biological Industries, Beit Haemek, Israel). Incubator was set on 37° C. with a humidified atmosphere containing 5% CO2.
1×10^4 cells per well were grown overnight on a 96-well plate. The following day, the media were replaced with 90 μl fresh culture medium and 10 μl solution buffer containing different concentrations of the different peptides. Peptide concentrations ranged from 0.78-100 μM. The cells were then incubated for 2 hours before adding to each well 50 μl of 2,3-bis-2H-tetrazolium-5-carboxanilide inner salt (XTT) reaction solution (Biological Industries). Viability was determined as described previously (Makovitzki et al. Cancer Res 69, 3458-63, 2009; Papo et al. 2006). The LC50 (the concentration at which 50% of the cells die) for each peptide was obtained from the dose-dependent cell viability curves.

S. aureus 6538P = assay type: cell-based
Experimental: (§2) The antibacterial activity of the peptides was examined in sterile 96-well plates (Nunc F96 microtiter plates) in a final volume of 100 μl, as follows. Aliquots (50 μl) of a suspension containing bacteria at a concentration of 10^6 colony-forming units/ml in culture medium (LB medium) were added to 50 μl of peptide serially diluted in culture medium (100 μM-0.78 μM). Inhibition of growth was determined by eye after an incubation of 18-20 h at 37° C. Antibacterial activities were expressed as the minimal inhibitory concentration, the concentration at which 100% inhibition of growth was observed after 18-20 h of incubation. In these the effect of the peptides on E. coli (ATCC:25922) and S. aureus (ATCC:6538P) was tested.

E. coli 25922 = assay type: cell-based
Experimental: as §2

C57BL mice = experiment: In vivo toxicity in mice; conditions: 100 mg/kg i.p.
Experimental: Toxicity was tested by intraperitoneal injection of K2(AL)8K2 (100 mg/kg in 400 μl saline) in female C57B1 mice (n=2). Mice were continuously observed for 1 hour immediately following injection and once per day for 7 days. To examine the effect of our peptides on acute septic shock driven by LPS hyperactivation of TLR4 we have used murine models as described before (Zheng et al. Int Immunopharmacol 10, 1209-19, 2010; Arima et al, 2005). Briefly, 12 weeks old C57 Black female mice were treated with 100 ng of LPS injected IP in a saline solution (200 μl, pH 6.5) containing 200 mg/ml of D-galactosamine (Calbiochem). Treated mice received one IP injection of 10 mg/kg peptide dissolved in saline (200 μl) following the LPS injection. In the second model heat-killed bacteria were used to induce a lethal septic shock. E. coli cells were grown to a mid log phase (OD=0.5) at 37° C., cooled on ice, and centrifuged at 3500 rpm for 10 minutes at 4° C. The cells were re-suspended in saline for a concentration of 2×10^9 cells in 200 μl and heated at 95° C. for 30 minutes. Each animal received an IP injection of 2×10^9 cells in 200 μl saline followed by injection of 10 mg/kg peptide dissolved in saline (200 μl). Animals were monitored for survival and for signs of sepsis for the next 14 days after LPS injection. Peptides used as the acetic acid salts for in vivo experiments. […]

[1] = LPS binding assay with NBD-labeled peptides; conditions: NBD-labeled peptide affinity to LPS
Experimental: NBD-labeled peptides (50 μl, 2 μM, PBS^−/− 2% DMSO) were added to different concentrations of LPS (50 μl PBS^−/−) in a opaque black 96 well plate. After 10 minutes of incubation at room temperature, the fluorescence was measured using an excitation of 467 nm and emission of 530 nm. The data were plotted and Kd and Bmax values obtained using NLLSQ analysis.

RBL-2H3 cells = experiment: IgE and DNP-BSA mediated degranulation (β-hexoseaminidase release); assay type: cell-based, rat; conditions: for Inhibition of Degranulation (%): peptide concentration 20 μM, derived from FIG. 9A
Experimental: In order to study the specific effect of the peptides of the invention on direct IgE mediated degranulation, the rat basophilic cell line (RBL-2H3) was used. This cell line expresses high levels of surface IgE receptor that binds IgE with high affinity (FcεRI). Upon adding an allergen (IgE antigen) there is a cross-linking of adjacent FcεRs that results in degranulation and release of histamine. Degranulation was measured as release of intracellular β-hexoseaminidase (Nunomura et al., Int Immunol 17, 685-94, 2005).
In this assay system, RBL cells were incubated with the DNP-specific murine monoclonal IgE SPE7 (Eshhar et al., J Immunol 124:775, 1980) for 2.5 hours. The cells were washed and centrifuged and then further incubated with the DNP-BSA antigen that crossed-link the FcεRI bound IgE. Next, extracellular hexoseaminidase levels were evaluated by their ability to hydrolyze the 4-nitrophenyl-N-acetyl-β-D-glucosaminide substrate which results in the accumulation of a colored product. The tested peptides (see Table 5) were added at different concentrations and stages of the assay and tested for their ability to inhibit this reaction.
In the first set of experiments, RBLs were incubated with different concentrations of the (AL)6AK2 peptide or irrelevant control peptide (alpha subunit peptide) in the presence of IgE. Following incubation, the cells were washed and DNP10-BSA with peptide was added to crosslink adjacent FcεRI (FIG. 6). Following incubation, the cells were washed and suspended in the degranulation medium for either 30 (FIG. 6A) or 60 min. (FIG. 6B).

TLR4 activation by LPS = experiment: TNFα secretion by RAW264.7 macrophages stimulated with LPS; assay type: cell-based, murine; conditions: for inhibition of LPS activation of macrophages (TNFα secretion), in words: LPS 10 ng/ml, peptide 20 μM (FIGS. 1A, 2)
Experimental: as §1
(§3) 2×10^5 cells per well were cultured overnight in a 96-wells plate. The following day, the media were replaced by fresh DMEM, including all supplements. Peptides were dissolved in DMSO and added to the cells in different concentrations. Final concentration of DMSO was 1% for all groups. Cells were incubated with the peptide for 2 hours, then LPS (TLR4 activator) or LTA (TLR2 activator) was added to the cells at 10 ng/ml or 500 ng/ml, respectively. The cells were further incubated for 5 hrs at 37° C., after which samples of the media from each treatment were collected and stored at −20° C. TNFα concentration in each sample was evaluated using a mouse TNFα enzyme-linked immunosorbent assay kit (Biosource™ ELISA, Invitorgen), according to the manufacturer's protocol. All experiments were done in triplicates.

Balb/c mice = experiment: Antigen (OVA) induced anaphylactic shock; assay type: in vivo; conditions: for Survival of anaphylactic shock (%): i.v. 10-15 mg/kg, 30-45 minutes prior to soluble OVA challenge
Experimental: The inhibitory capacity of the Kn(AL)nKn peptides was tested in the most rigorous manner for inhibition of otherwise fatal anaphylaxis. In this model, Balb/c mice were immunized by an i.p. injection of 100 μg OVA in 5 mg Alum and 1.5 μg pertusis, a protocol that favors IgE-type of response. Three weeks later the immunized mice received an i.v. injection of soluble OVA (3.5-5 μg), resulting in a rapid and aggressive anaphylactic shock. In this specific model, the immunized mice die within 10-20 minutes after the systemic (i.v.) OVA injection.
To test the ability of the peptides of the invention to inhibit anaphylactic shock formation, an i.v. injection of the K2(AL)8K2 peptide at 10-15 mg/kg was administered, 30-45 minutes prior to the soluble OVA challenge. Strikingly, this single injection rescued 87% of the sensitized mice (Table 7). […] In several mice that were protected by the K2(AL)8K2 peptide, the protection lasted for at least 2 days. Peptide treated mice died of anaphylactic shock only after systemic injection of a very high dose of OVA. Still, the exact conditions for optimum protective activity need to be validated.

RBL cells = assay type: cell-based, rat
TLR2 activation by LTA = experiment: TNFα secretion by RAW264.7 macrophages stimulated with LTA; assay type: cell-based, murine; conditions: LTA 500 ng/ml; peptide 20 μM (FIG. 1A)
Experimental: as §1, §3

[2] = 100% inhibition of growth after 18-20 h

Substance | IC50 (RAW264.7 macrophages) | MIC S. aureus 6538P (S. aureus 6538P; 6538P) | MIC E. coli 25922 (E. coli 25922; 25922) | Kd [1] | other results
KKALALALALALALALALKK-NH2 [K2(AL)8K2] | > 100 µM | >100 µM | >100 µM |  | adverse effects in vivo (C57BL mice): not adversely affected
ALALALALALALALALALKK-NH2 [(AL)9K2] | > 100 µM | >100 µM | >100 µM | 4.4 µM | Inhibition of Degranulation (%) (RBL-2H3 cells): 30%
KKALALALKK-NH2 [K2(AL)3K2, KKALALALKK] | > 100 µM | >100 µM | >100 µM | 10 to 15 µM | inhibition of LPS activation of macrophages (TNFα secretion), in words (TLR4 activation by LPS): inactive
KKALALALALALALALALKK [4D-K2(AL)8K2] |  |  |  | 15.6 µM | LC50 (cytotoxicity) (RAW264.7 macrophages): > 100 µM; MIC S. aureus 6538P (S. aureus 6538P; [2]): 100 µM; MIC E. coli 25922 (E. coli 25922; [2]): 100 µM
KALALALKALALKALALALK-NH2 [K(AL)3K(AL)2K(AL)3K] | 25 µM | 12.5 µM | 25 µM | 9.6 µM | inhibition of LPS activation of macrophages (TNFα secretion), in words (TLR4 activation by LPS): highly active
KALALALALALALAK-NH2 [K(AL)6AK] | > 100 µM | >100 µM | >100 µM |  | 
LALALALALALALALALALK-NH2 [L(AL)9K] |  |  |  |  | LC50 (cytotoxicity) (RAW264.7 macrophages): > 100 µM; Survival of anaphylactic shock (%) (Balb/c mice): 0%; protection from anaphylactic shock, in words (Balb/c mice; mouse, in vivo): failed also to give any protection; MIC S. aureus 6538P (S. aureus 6538P; [2]): >100 µM; MIC E. coli 25922 (E. coli 25922; [2]): >100 µM; inhibition of IgE/DNP-BSA degranulation, in words (RBL-2H3 cells): no inhibition; Inhibition of Degranulation (%) (RBL-2H3 cells): 0%
KALALALALALALALALALK-NH2 [K(AL)9K] | > 100 µM | >100 µM | >100 µM |  | 
KKALALALALALALALALALALAKK [K2(AL)10AK2] |  |  |  |  | Survival of anaphylactic shock (%) (Balb/c mice): 50%
ALALALALALALAKK-NH2 [(AL)6AK2, ALALALALALALAKK] | > 100 µM | >100 µM | >100 µM |  | killing or growth inhibition of RBL cells (RBL cells): did not kill or inhibited the growth
KKAVAVAVAVAVAVAVAVKK-NH2 [K2(AV)8K2] | 90 µM | >100 µM | >100 µM |  | inhibition of LTA activation of macrophages (TNFα secretion), in words (TLR2 activation by LTA): good inhibition; inhibition of LPS activation of macrophages (TNFα secretion), in words (TLR4 activation by LPS): medium inhibition; also recorded: lower activity
ALALALALALALALALALKK [4D-(AL)9K2] |  |  |  |  | LC50 (cytotoxicity) (RAW264.7 macrophages): 50 µM; MIC S. aureus 6538P (S. aureus 6538P; [2]): >100 µM; MIC E. coli 25922 (E. coli 25922; [2]): >100 µM
ALALALALALALALK-NH2 [(AL)7K] |  |  |  |  | LC50 (cytotoxicity) (RAW264.7 macrophages): > 100 µM; MIC S. aureus 6538P (S. aureus 6538P; [2]): >100 µM; MIC E. coli 25922 (E. coli 25922; [2]): >100 µM
KKALALALALALAKK-NH2 [K2(AL)5AK2, KKALALALALALAKK] | > 100 µM | >100 µM | >100 µM | 2.7 µM | inhibition of LPS activation of macrophages (TNFα secretion), in words (TLR4 activation by LPS): lower activity; inhibition (LPS neutralization) (TLR4 activation by LPS; peptide 20 μM): 50%
